In one assay the target is Prolyl endopeptidase (Mus musculus, UniProt Q9QUR6). Briefly: Inhibition of PREP in C57BL/6 mouse cortex homogenate assessed as formation of 7-amido-4-methylcoumarin using Suc-Gly-Pro-amido-4-methylcoumarin as substrate preincubated for 30 mins followed by substrate addition measured after 60 mins by fluorometric assay.
Chain of Prolyl endopeptidase (Mus musculus, UniProt Q9QUR6) (Q9QUR6 whole entry): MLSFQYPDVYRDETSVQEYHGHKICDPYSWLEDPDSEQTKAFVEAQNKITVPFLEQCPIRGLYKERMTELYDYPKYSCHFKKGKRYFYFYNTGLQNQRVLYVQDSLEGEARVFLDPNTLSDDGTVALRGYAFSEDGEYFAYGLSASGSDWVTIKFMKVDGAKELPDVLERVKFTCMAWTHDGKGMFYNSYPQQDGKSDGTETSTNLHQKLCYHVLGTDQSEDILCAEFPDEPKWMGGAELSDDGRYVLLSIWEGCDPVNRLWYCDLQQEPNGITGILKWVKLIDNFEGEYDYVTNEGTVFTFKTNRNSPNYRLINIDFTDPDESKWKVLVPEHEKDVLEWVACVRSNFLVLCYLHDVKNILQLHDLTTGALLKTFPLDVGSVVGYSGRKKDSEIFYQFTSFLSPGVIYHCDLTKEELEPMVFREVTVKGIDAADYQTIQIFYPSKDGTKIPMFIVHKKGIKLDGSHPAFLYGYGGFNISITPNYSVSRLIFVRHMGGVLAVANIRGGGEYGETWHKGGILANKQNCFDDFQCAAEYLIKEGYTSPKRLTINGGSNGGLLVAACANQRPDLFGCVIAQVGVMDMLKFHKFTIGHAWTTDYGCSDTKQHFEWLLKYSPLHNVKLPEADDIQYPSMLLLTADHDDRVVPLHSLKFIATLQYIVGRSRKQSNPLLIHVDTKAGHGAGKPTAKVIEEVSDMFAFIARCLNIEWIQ
As to `N#C[C@@H]1CCCN1C(=O)CNC(=O)CCCc1ccccc1`, the 50% inhibitory concentration (IC50) (commonly the midpoint of a concentration-inhibition curve) is 0.264 µM.

Consider `CN(CC(=O)N1CCCC1)C(=O)CCCc1ccccc1`, for which the IC50 amounted to 5.14 µM. The same measure, in the same setting: the result for `O=C(CCCc1ccccc1)NCCC(=O)N1CCCC1` reads 12.1 µM.

Regarding `C[C@H](NC(=O)CCCc1ccccc1)C(=O)N1CCC[C@H]1c1nnn[nH]1`, the IC50 was found to be 0.091 µM. Same read-out and setting: the result for `C[C@@H](C(=O)N1CCC[C@H]1C(N)=O)N(C)C(=O)CCCc1ccccc1` reads 28.8 µM; that for `NC(=O)[C@@H]1CCCN1C(=O)CNC(=O)CCCc1ccccc1`, 154 µM; that for `C[C@H](NC(=O)CCCc1ccccc1)C(=O)N1CCC[C@H]1C#N`, 0.00328 µM. In the case of `CC(C)(NC(=O)CCCc1ccccc1)C(=O)N1CCCC1`, the concentration for half-maximal inhibition (IC50) is 13.5 µM. Still for that read-out and setting: next, `C[C@@H](NC(=O)CCCc1ccccc1)C(=O)N1CCCC1`: 35.2 µM; `CN(CC(=O)N1CCC[C@H]1C(N)=O)C(=O)CCCc1ccccc1`: 457 µM; `C[C@@H](C(=O)N1CCCC1)N(C)C(=O)CCCc1ccccc1`: 0.298 µM. Same read-out and setting: next, `C[C@H](NC(=O)CCCc1ccccc1)C(=O)N1CCC[C@H]1C(N)=O`: 6.21 µM.

Another assay deals with Prolyl endopeptidase (Sus scrofa, UniProt P23687). In words: Inhibition of recombinant porcine brain PREP expressed in Escherichia coli assessed as formation of 7-amido-4-methylcoumarin using Suc-Gly-Pro-amido-4-methylcoumarin as substrate preincubated for 30 mins followed by substrate addition measured after 60 mins by fluorometric assay.
Chain of Prolyl endopeptidase (Sus scrofa, UniProt P23687) (P23687 whole entry): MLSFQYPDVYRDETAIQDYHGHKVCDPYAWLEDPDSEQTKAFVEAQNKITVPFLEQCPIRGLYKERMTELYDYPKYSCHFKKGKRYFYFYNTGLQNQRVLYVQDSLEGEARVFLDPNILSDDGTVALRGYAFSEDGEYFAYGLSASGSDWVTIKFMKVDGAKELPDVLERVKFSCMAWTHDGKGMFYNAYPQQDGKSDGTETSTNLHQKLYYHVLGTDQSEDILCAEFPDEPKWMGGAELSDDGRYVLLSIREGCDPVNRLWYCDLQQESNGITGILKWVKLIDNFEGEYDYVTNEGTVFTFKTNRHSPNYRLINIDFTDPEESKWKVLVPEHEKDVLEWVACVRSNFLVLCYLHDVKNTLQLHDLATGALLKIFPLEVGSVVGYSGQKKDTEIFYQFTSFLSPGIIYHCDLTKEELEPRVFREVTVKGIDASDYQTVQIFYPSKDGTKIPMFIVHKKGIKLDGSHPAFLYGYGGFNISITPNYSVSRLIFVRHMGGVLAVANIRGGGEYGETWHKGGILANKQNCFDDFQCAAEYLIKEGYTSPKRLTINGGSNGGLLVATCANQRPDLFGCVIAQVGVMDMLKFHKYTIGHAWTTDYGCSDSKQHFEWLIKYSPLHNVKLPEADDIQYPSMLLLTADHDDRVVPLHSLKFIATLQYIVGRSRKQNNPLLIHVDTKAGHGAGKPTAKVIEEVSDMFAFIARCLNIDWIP
With `C[C@H](NC(=O)CCCc1ccccc1)C(=O)N1CCC[C@H]1C(=O)O`, the IC50 is 17500 nM. Take `NC(=O)[C@@H]1CCCN1C(=O)[C@@H]1CCCN1C(=O)CCCc1ccccc1`: the IC50 is 4370 nM. Same read-out and setting: next, `N#C[C@@H]1CCCN1C(=O)CNC(=O)CCCc1ccccc1`: 220 nM; `C[C@@H](C(=O)N1CCC[C@H]1c1nnn[nH]1)N(C)C(=O)CCCc1ccccc1`: 27200 nM; `CN(CC(=O)N1CCC[C@H]1c1nnn[nH]1)C(=O)CCCc1ccccc1`: 10600 nM. As for `O=C(O)[C@@H]1CCCN1C(=O)[C@@H]1CCCN1C(=O)CCCc1ccccc1`, the IC50 is 3630 nM. With `C[C@H](NC(=O)CCCc1ccccc1)C(=O)N1CCCC1`, the IC50 was determined as 147 nM. Take `C[C@H](NC(=O)CCCc1ccccc1)C(=O)N1CCC[C@H]1C#N`: the IC50 came out at 4.06 nM. On the same count and under the same terms, the result for `C[C@@H](C(=O)N1CCC[C@H]1C#N)N(C)C(=O)CCCc1ccccc1` reads 5.4 nM; that for `O=C(CCCc1ccccc1)NCC(=O)N1CCC[C@H]1c1nnn[nH]1`, 205000 nM; that for `CN(CC(=O)N1CCC[C@H]1C#N)C(=O)CCCc1ccccc1`, 269 nM. On the same count and under the same terms, next, `O=C(CCCc1ccccc1)N1CCC[C@H]1C(=O)N1CCC[C@H]1c1nnn[nH]1`: 12 nM.

These data come from ChEMBL document CHEMBL4406920, “Tetrazole as a Replacement of the Electrophilic Group in Characteristic Prolyl Oligopeptidase Inhibitors” (ACS Med Chem Lett, 2019).
